Assay results from PubChem BioAssay (NCI).
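Step 1: Grow cells in 96-well plates. Step 2: Expose to compound for 48 hours at 5 concentrations. Step 3: Interpolate endpoints linearly; if unreached, use highest concentration. At the GI50, growth is halved. TGI is the concentration that stops growth completely.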

How the values were obtained:
Assay in all cases: NCI-60 cell line screen, 48 h
[1] = tested on: SK-OV-3 ovarian
[2] = tested on: EKVX NSCLC
[3] = tested on: HL-60(TB) leukemia
[4] = tested on: HT29 colon
[5] = tested on: UACC-257 melanoma
[6] = tested on: K-562 leukemia
[7] = tested on: TK-10 renal
[8] = tested on: NCI-H226 lung
[9] = tested on: SK-MEL-28 melanoma
[10] = tested on: OVCAR-5 ovarian

Structure (SMILES) | TGI [1] [µM] | TGI [2] [µM] | TGI [3] [µM] | TGI [4] [µM] | TGI [5] [µM] | TGI [6] [µM] | TGI [7] [µM] | TGI [8] [µM] | TGI [9] [µM] | TGI [10] [µM] | GI50 [1] [µM] | GI50 [2] [µM] | GI50 [8] [µM] | GI50 [4] [µM] | GI50 [5] [µM] | GI50 [6] [µM] | GI50 [9] [µM] | GI50 [7] [µM] | GI50 [10] [µM]
O=C1N=C2SC(=S)NC(=S)N2NC12c1ccccc1-c1ccccc12 | > 10 | > 10 | > 10 | > 10 | > 10 | > 10 | > 10 | – | – | – | – | – | – | – | – | – | – | – | –
Nc1nc(Cl)cc(NCC2(O)CC2)n1 | > 100 | > 100 | > 100 | > 100 | > 100 | > 100 | > 100 | > 100 | > 100 | > 100 | – | – | – | – | – | – | – | – | –
CC[C@H](Nc1nc(C)nc(N)c1C#N)c1nc2cccc(NCc3ccc(C(=O)NO)cc3)c2c(=O)n1-c1ccccc1 | 3.13 | 3.21 | – | 4.45 | 4.16 | > 100 | 7.86 | 4.44 | 3.28 | 3.32 | 1.65 | 1.56 | 1.72 | 1.76 | 1.83 | 2.2 | 1.6 | 2.43 | 1.51
N#C/C(=C/n1c(=S)[nH]c2ccc([N+](=O)[O-])cc21)C(N)=O | > 100 | > 100 | > 100 | > 100 | > 100 | – | > 100 | > 100 | > 100 | > 100 | – | – | – | – | – | – | – | – | –
CC(C)N1CC2CC(CN(C(=O)c3ccccc3)C2)C1 | > 100 | > 100 | > 100 | > 100 | > 100 | > 100 | > 100 | > 100 | > 100 | > 100 | – | – | – | – | – | – | – | – | –
Cc1ccc2c(c1)-c1c(C#N)c(N)nc(-c3ccc(Cl)cc3)c1CCS2(=O)=O | > 100 | > 100 | – | > 100 | > 100 | 7.02 | > 100 | > 100 | > 100 | > 100 | – | – | – | – | – | – | – | – | –
CCC(CO)Nc1nc(NCc2ccccc2)c2ncn(C(C)C)c2n1 (centres undefined) | > 100 | 49.5 | > 70.5 | 52.5 | > 94.7 | > 100 | > 84.6 | 39.4 | 34.4 | > 69.1 | – | – | – | – | – | – | – | – | –
c1ccc2c(c1)Sc1nccc3ccnc-2c13 | > 100 | > 100 | > 100 | 65.5 | > 100 | > 100 | > 100 | > 100 | > 100 | > 100 | – | – | – | – | – | – | – | – | –
Cc1[nH]c(=O)nc(NCCNCCO)c1C(=O)Nc1cccc2cc3ccccc3cc12 | – | > 100 | > 100 | > 100 | > 100 | > 100 | > 100 | > 100 | > 100 | > 100 | – | – | – | – | – | – | – | – | –
Cc1cc2c(O)c(c1)CN(CC(=O)O)Cc1cc(C)cc(c1O)CN(CC(=O)O)Cc1cc(C)cc(c1O)CN(CC(=O)O)C2 | > 100 | > 100 | – | > 100 | > 100 | > 100 | > 100 | > 100 | > 100 | > 100 | – | – | – | – | – | – | – | – | –
C=C1N(C=O)C(C)(C)N(O)C1(C)C | > 100 | > 100 | – | > 100 | > 100 | – | > 100 | > 100 | > 100 | > 100 | – | – | – | – | – | – | – | – | –
CCP(=O)(OC)C1=CCN(C(=O)OCC[Si](C)(C)C)CC1 (centres undefined) | > 100 | > 100 | > 100 | > 100 | > 100 | > 100 | > 100 | > 100 | > 100 | > 100 | – | – | – | – | – | – | – | – | –
COc1ccc2nc(/C(N)=C\C#N)ccc2c1 | – | > 100 | 46.5 | > 100 | > 100 | > 100 | > 100 | > 100 | > 100 | > 100 | – | – | – | – | – | – | – | – | –
COC(=O)C1=C(C(=O)OC)SC(=CC#CC=C2SC(C(=O)OC)=C(C(=O)OC)S2)S1 | 31.5 | > 100 | > 100 | > 100 | > 100 | > 100 | 23.9 | 35.4 | > 63.2 | > 100 | – | – | – | – | – | – | – | – | –
CSc1cc(=O)n2c3ccccc3c3ccnc1c32 | 97.5 | 56.8 | > 100 | > 100 | > 100 | > 100 | – | > 100 | > 100 | > 100 | – | – | – | – | – | – | – | – | –
COc1cc(C(c2c(O)c3ccccc3oc2=O)c2c(O)c3ccccc3oc2=O)cc(Br)c1O | 35.8 | 34.2 | 64.2 | 37.1 | 33 | > 100 | 30.6 | 49.1 | 59.2 | 39.3 | – | – | – | – | – | – | – | – | –
CC1=NN(c2nc(N)nc(-c3sccc3N)n2)C(C)(C)C1 | > 100 | > 100 | > 100 | > 100 | > 100 | > 100 | > 100 | > 100 | > 100 | > 100 | – | – | – | – | – | – | – | – | –
O=c1c(Cc2ccc(Cl)cc2)nnc2sc(-c3ccc(-c4ccc(F)c(Cl)c4)o3)nn12 | > 100 | > 100 | > 100 | > 100 | > 100 | > 100 | > 100 | > 100 | > 100 | > 100 | – | – | – | – | – | – | – | – | –
Cc1cc(S(=O)(=O)Nc2n[nH]c(-c3ccccn3)n2)c(S)cc1Cl | 37.3 | 92 | 41.2 | 41.7 | > 100 | – | 23.9 | 30.5 | > 100 | 45.4 | – | – | – | – | – | – | – | – | –
Cc1ccc(C(=O)N/N=C(\N=Nc2ccccc2)c2ccc(N(C)C)cc2)cc1 | > 100 | > 100 | > 100 | > 100 | > 100 | > 100 | > 100 | > 100 | > 100 | > 100 | – | – | – | – | – | – | – | – | –
S=C(N/N=C\C(=N/NC(=S)N1CCCCC1)c1ccccc1)N1CCCCC1 | 3.37 | 3.31 | – | 4.61 | 5.01 | > 100 | 3.25 | 3.38 | 3.65 | 3.33 | – | – | – | – | – | – | – | – | –
CC(C)C(CC(=O)OCC(CO)OC(=O)CC(C(C)C)C(C)C)C(C)C (centres undefined) | 30.9 | 27 | – | 32.1 | 31.2 | 33 | 26.3 | 30.1 | 30.3 | 26.1 | – | – | – | – | – | – | – | – | –
